# According to ChEMBL document CHEMBL3352057, “Novel fluorinated pyrrolo[1,2-a]pyrazine-2,6-dione derivatives: synthesis and anticonvulsant evaluation in animal models of epilepsy” (Bioorg Med Chem, 2014):
# Activity calls are given as the source filed them. The rule behind the calls is not given here.
# Legend:
# Rattus norvegicus [1] = assay: Anticonvulsant activity in pilocarpine-induced status prevention Sprague-Dawley rat model assessed as weight change 24 hrs post-first stage 3 seizure of non-protected rat at 200 mg/kg, ip measured after 0.5 hr; format: functional; settings: route intraperitoneal
# Mus musculus [2] = assay: Anticonvulsant activity in albino CF1 mouse assessed as protection against maximal electroshock-induced seizures at 100 mg/kg, ip measured after 0.25 hr; format: functional, organism-based; design: dose 100 mg/kg
# Mus musculus [3] = assay: Anticonvulsant activity in albino CF1 mouse assessed as protection against maximal electroshock-induced seizures at 100 mg/kg, ip measured after 0.5 hr; format: functional, organism-based; design: dose 100 mg/kg
# Mus musculus [4] = assay: Anticonvulsant activity in albino CF1 mouse assessed as protection against maximal electroshock-induced seizures at 100 mg/kg, ip measured after 1 hr; format: functional, organism-based; design: dose 100 mg/kg
# Mus musculus [5] = assay: Anticonvulsant activity in albino CF1 mouse assessed as protection against maximal electroshock-induced seizures at 100 mg/kg, ip measured after 4 hrs; format: functional, organism-based; design: dose 100 mg/kg
# Mus musculus [6] = assay: Anticonvulsant activity in albino CF1 mouse assessed as protection against subcutaneous metrazol-induced seizures at 100 mg/kg, ip measured after 0.5 hr; format: functional, organism-based; design: dose 100 mg/kg
# Mus musculus [7] = assay: Anticonvulsant activity in albino CF1 mouse assessed as protection against subcutaneous metrazol-induced seizures at 100 mg/kg, ip measured after 4 hrs; format: functional, organism-based; design: dose 100 mg/kg
# Mus musculus [8] = assay: Neurotoxicity in albino CF1 mouse at 100 mg/kg, ip measured after 0.25 hr; format: toxicity, organism-based; design: dose 100 mg/kg, route intraperitoneal; settings: in vivo
# Mus musculus [9] = assay: Neurotoxicity in albino CF1 mouse at 100 mg/kg, ip measured after 0.5 hr; format: toxicity, organism-based; design: dose 100 mg/kg, route intraperitoneal; settings: in vivo
# Mus musculus [10] = assay: Neurotoxicity in albino CF1 mouse at 100 mg/kg, ip measured after 1 hr; format: toxicity, organism-based; design: dose 100 mg/kg, route intraperitoneal; settings: in vivo
# Mus musculus [11] = assay: Neurotoxicity in albino CF1 mouse at 100 mg/kg, ip measured after 4 hrs; format: toxicity, organism-based; design: dose 100 mg/kg, route intraperitoneal; settings: in vivo
# Mus musculus [12] = assay: Neurotoxicity in albino CF1 mouse assessed as loss of righting reflex at 100 mg/kg, ip measured after 0.25 hr; format: toxicity, organism-based; design: dose 100 mg/kg, route intraperitoneal; settings: in vivo
# Mus musculus [13] = assay: Anticonvulsant activity in albino CF1 mouse assessed as protection against subcutaneous metrazol-induced seizures at 300 mg/kg, ip measured after 0.5 hr; format: functional, organism-based; design: dose 300 mg/kg
# Mus musculus [14] = assay: Anticonvulsant activity in albino CF1 mouse assessed as protection against 32 mA current-induced seizures at 100 mg/kg, ip measured after 0.25 hr; format: functional, organism-based; design: dose 100 mg/kg
# Mus musculus [15] = assay: Anticonvulsant activity in albino CF1 mouse assessed as protection against 32 mA current-induced seizures at 100 mg/kg, ip measured after 0.5 hr; format: functional, organism-based; design: dose 100 mg/kg
# Mus musculus [16] = assay: Anticonvulsant activity in albino CF1 mouse assessed as protection against 32 mA current-induced seizures at 100 mg/kg, ip measured after 1 hr; format: functional, organism-based; design: dose 100 mg/kg
# Mus musculus [17] = assay: Anticonvulsant activity in albino CF1 mouse assessed as protection against 32 mA current-induced seizures at 100 mg/kg, ip measured after 2 hrs; format: functional, organism-based; design: dose 100 mg/kg
# Mus musculus [18] = assay: Anticonvulsant activity in albino CF1 mouse assessed as protection against 32 mA current-induced seizures at 100 mg/kg, ip measured after 4 hrs; format: functional, organism-based; design: dose 100 mg/kg
# Mus musculus [19] = assay: Neurotoxicity in 32 mA current-induced seizure albino CF1 mouse model at 100 mg/kg, ip measured after 0.25 hr; format: toxicity, organism-based; design: dose 100 mg/kg, route intraperitoneal; settings: in vivo
# Mus musculus [20] = assay: Neurotoxicity in 32 mA current-induced seizure albino CF1 mouse model at 100 mg/kg, ip measured after 0.5 hr; format: toxicity, organism-based; design: dose 100 mg/kg, route intraperitoneal; settings: in vivo
# Mus musculus [21] = assay: Neurotoxicity in 32 mA current-induced seizure albino CF1 mouse model at 100 mg/kg, ip measured after 1 hr; format: toxicity, organism-based; design: dose 100 mg/kg, route intraperitoneal; settings: in vivo
# Mus musculus [22] = assay: Neurotoxicity in 32 mA current-induced seizure albino CF1 mouse model at 100 mg/kg, ip measured after 2 hrs; format: toxicity, organism-based; design: dose 100 mg/kg, route intraperitoneal; settings: in vivo
# Mus musculus [23] = assay: Neurotoxicity in 32 mA current-induced seizure albino CF1 mouse model at 100 mg/kg, ip measured after 4 hrs; format: toxicity, organism-based; design: dose 100 mg/kg, route intraperitoneal; settings: in vivo
# Rattus norvegicus [24] = assay: Anticonvulsant activity in Sprague-Dawley rat assessed as protection against maximal electroshock-induced seizures at 30 mg/kg, po measured after 0.25 hr; format: functional, organism-based; design: dose 30 mg/kg
# Rattus norvegicus [25] = assay: Anticonvulsant activity in Sprague-Dawley rat assessed as protection against maximal electroshock-induced seizures at 30 mg/kg, po measured after 0.5 hr; format: functional, organism-based; design: dose 30 mg/kg
# Rattus norvegicus [26] = assay: Anticonvulsant activity in Sprague-Dawley rat assessed as protection against maximal electroshock-induced seizures at 30 mg/kg, po measured after 1 hr; format: functional, organism-based; design: dose 30 mg/kg
# Rattus norvegicus [27] = assay: Anticonvulsant activity in Sprague-Dawley rat assessed as protection against maximal electroshock-induced seizures at 30 mg/kg, po measured after 2 hrs; format: functional, organism-based; design: dose 30 mg/kg
# Rattus norvegicus [28] = assay: Anticonvulsant activity in Sprague-Dawley rat assessed as protection against maximal electroshock-induced seizures at 30 mg/kg, po measured after 4 hrs; format: functional, organism-based; design: dose 30 mg/kg
# Rattus norvegicus [29] = assay: Neurotoxicity in MES Sprague-Dawley rat model at 30 mg/kg, po measured after 0.25 hr; format: toxicity, organism-based; design: dose 30 mg/kg, route oral; settings: in vivo
# Rattus norvegicus [30] = assay: Neurotoxicity in MES Sprague-Dawley rat model at 30 mg/kg, po measured after 0.5 hr; format: toxicity, organism-based; design: dose 30 mg/kg, route oral; settings: in vivo
# Rattus norvegicus [31] = assay: Neurotoxicity in MES Sprague-Dawley rat model at 30 mg/kg, po measured after 1 hr; format: toxicity, organism-based; design: dose 30 mg/kg, route oral; settings: in vivo
# Rattus norvegicus [32] = assay: Neurotoxicity in MES Sprague-Dawley rat model at 30 mg/kg, po measured after 2 hrs; format: toxicity, organism-based; design: dose 30 mg/kg, route oral; settings: in vivo
# Rattus norvegicus [33] = assay: Neurotoxicity in MES Sprague-Dawley rat model at 30 mg/kg, po measured after 4 hrs; format: toxicity, organism-based; design: dose 30 mg/kg, route oral; settings: in vivo
# Rattus norvegicus [34] = assay: Anticonvulsant activity in Sprague-Dawley rat assessed as protection against maximal electroshock-induced seizures at 30 mg/kg, ip measured after 0.25 hr; format: functional, organism-based; design: dose 30 mg/kg
# Rattus norvegicus [35] = assay: Anticonvulsant activity in Sprague-Dawley rat assessed as protection against maximal electroshock-induced seizures at 30 mg/kg, ip measured after 0.5 hr; format: functional, organism-based; design: dose 30 mg/kg
# Rattus norvegicus [36] = assay: Anticonvulsant activity in Sprague-Dawley rat assessed as protection against maximal electroshock-induced seizures at 30 mg/kg, ip measured after 1 hr; format: functional, organism-based; design: dose 30 mg/kg
# Rattus norvegicus [37] = assay: Anticonvulsant activity in Sprague-Dawley rat assessed as protection against maximal electroshock-induced seizures at 30 mg/kg, ip measured after 2 hrs; format: functional, organism-based; design: dose 30 mg/kg
# Rattus norvegicus [38] = assay: Anticonvulsant activity in Sprague-Dawley rat assessed as protection against maximal electroshock-induced seizures at 30 mg/kg, ip measured after 4 hrs; format: functional, organism-based; design: dose 30 mg/kg
# Rattus norvegicus [39] = assay: Neurotoxicity in MES Sprague-Dawley rat model at 30 mg/kg, ip measured after 0.25 hr; format: toxicity, organism-based; design: dose 30 mg/kg, route intraperitoneal; settings: in vivo
# Rattus norvegicus [40] = assay: Neurotoxicity in MES Sprague-Dawley rat model at 30 mg/kg, ip measured after 0.5 hr; format: toxicity, organism-based; design: dose 30 mg/kg, route intraperitoneal; settings: in vivo
# Rattus norvegicus [41] = assay: Neurotoxicity in MES Sprague-Dawley rat model at 30 mg/kg, ip measured after 1 hr; format: toxicity, organism-based; design: dose 30 mg/kg, route intraperitoneal; settings: in vivo
# Rattus norvegicus [42] = assay: Neurotoxicity in MES Sprague-Dawley rat model at 30 mg/kg, ip measured after 2 hrs; format: toxicity, organism-based; design: dose 30 mg/kg, route intraperitoneal; settings: in vivo
# Rattus norvegicus [43] = assay: Neurotoxicity in MES Sprague-Dawley rat model at 30 mg/kg, ip measured after 4 hrs; format: toxicity, organism-based; design: dose 30 mg/kg, route intraperitoneal; settings: in vivo
# Mus musculus [44] = assay: Anticonvulsant activity in ip dosed albino CF1 mouse assessed as protection against maximal electroshock-induced seizures; format: functional
# Mus musculus [45] = assay: Anticonvulsant activity in ip dosed albino CF1 mouse assessed as protection against subcutaneous metrazol-induced seizures; format: functional
# [46] = Neurotoxicity in ip dosed albino CF1 mouse; format: toxicity, organism-based; settings: in vivo
# [47] = Protective index, ratio of TD50 for neurotoxicity in ip dosed albino CF1 mouse to ED50 for anticonvulsant activity in ip dosed MES albino CF1 mouse model; format: toxicity, organism-based; settings: in vivo, read-out: Ratio TD50/ED50
# Mus musculus [48] = assay: Anticonvulsant activity in ip dosed albino CF1 mouse assessed as protection against maximal electroshock-induced seizures measured as time to peak effect; format: functional
# Mus musculus [49] = assay: Anticonvulsant activity in ip dosed albino CF1 mouse assessed as protection against 32 mA current-induced seizures; format: functional
# [50] = Neurotoxicity in ip dosed albino CF1 mouse measured at 0.25 hr post dose; format: toxicity, organism-based; settings: in vivo
# Mus musculus [51] = assay: Anticonvulsant activity in ip dosed albino CF1 mouse assessed as protection against 6 Hz current-induced seizures measured as time to peak effect; format: functional
# Mus musculus [52] = assay: Anticonvulsant activity in ip dosed corneal kindled albino CF1 mouse seizure model; format: functional
# Mus musculus [53] = assay: Anticonvulsant activity in ip dosed corneal kindled albino CF1 mouse seizure model assessed as time to peak effect; format: functional
# Rattus norvegicus [54] = assay: Anticonvulsant activity in pilocarpine-induced status prevention Sprague-Dawley rat model assessed as weight change 24 hrs post-first stage 3 seizure of protected rat at 200 mg/kg, ip; format: functional; settings: route intraperitoneal
# Mus musculus [55] = assay: Neurotoxicity in albino CF1 mouse at 300 mg/kg, ip measured after 0.5 hr; format: toxicity, organism-based; design: dose 300 mg/kg, route intraperitoneal; settings: in vivo
smiles,measurement,setting,value
Cl.O=C1NC(=O)[C@@H]2CCCN2[C@H]1c1cccc(C(F)(F)F)c1,Activity,Rattus norvegicus [1],-25 g
same,Activity,Mus musculus [2],Active
same,Activity,Mus musculus [3],inactive
same,Activity,Mus musculus [4],Active
same,Activity,Mus musculus [5],inactive
same,Activity,Mus musculus [6],inactive
same,Activity,Mus musculus [7],inactive
same,Activity,Mus musculus [8],Toxic
same,Activity,Mus musculus [9],Non-toxic
same,Activity,Mus musculus [10],Non-toxic
same,Activity,Mus musculus [11],Non-toxic
same,Activity,Mus musculus [12],Toxic
same,Activity,Mus musculus [13],Active
same,Activity,Mus musculus [14],Active
same,Activity,Mus musculus [15],Active
same,Activity,Mus musculus [16],inactive
same,Activity,Mus musculus [17],inactive
same,Activity,Mus musculus [18],inactive
same,Activity,Mus musculus [19],Non-toxic
same,Activity,Mus musculus [20],Non-toxic
same,Activity,Mus musculus [21],Non-toxic
same,Activity,Mus musculus [22],Non-toxic
same,Activity,Mus musculus [23],Non-toxic
same,Activity,Rattus norvegicus [24],inactive
same,Activity,Rattus norvegicus [25],inactive
same,Activity,Rattus norvegicus [26],inactive
same,Activity,Rattus norvegicus [27],inactive
same,Activity,Rattus norvegicus [28],inactive
same,Activity,Rattus norvegicus [29],Non-toxic
same,Activity,Rattus norvegicus [30],Non-toxic
same,Activity,Rattus norvegicus [31],Non-toxic
same,Activity,Rattus norvegicus [32],Non-toxic
same,Activity,Rattus norvegicus [33],Non-toxic
same,Activity,Rattus norvegicus [34],inactive
same,Activity,Rattus norvegicus [35],inactive
same,Activity,Rattus norvegicus [36],inactive
same,Activity,Rattus norvegicus [37],inactive
same,Activity,Rattus norvegicus [38],inactive
same,Activity,Rattus norvegicus [39],Non-toxic
same,Activity,Rattus norvegicus [40],Non-toxic
same,Activity,Rattus norvegicus [41],Non-toxic
same,Activity,Rattus norvegicus [42],Non-toxic
same,Activity,Rattus norvegicus [43],Non-toxic
same,ED50,Mus musculus [44],165 µmol/kg
same,ED50,Mus musculus [45],218 µmol/kg
same,TD50,[46],269 µmol/kg
same,selectivity ratio,[47],1.6
same,Time,Mus musculus [48],0.25 h
same,ED50,Mus musculus [49],119 µmol/kg
same,TD50 at 0.25 h,[50],166 µmol/kg
same,Time,Mus musculus [51],0.5 h
same,ED50,Mus musculus [52],116 µmol/kg
same,Time,Mus musculus [53],0.25 h
same,Activity,Rattus norvegicus [54],-3.8 g
O=C1NC(=O)[C@@H](c2cccc(C(F)(F)F)c2)N2CCC[C@@H]12,Activity,Mus musculus [2],inactive
same,Activity,Mus musculus [3],inactive
same,Activity,Mus musculus [4],inactive
same,Activity,Mus musculus [5],inactive
same,Activity,Mus musculus [6],inactive
same,Activity,Mus musculus [7],inactive
same,Activity,Mus musculus [8],Toxic
same,Activity,Mus musculus [9],Non-toxic
same,Activity,Mus musculus [10],Non-toxic
same,Activity,Mus musculus [11],Non-toxic
same,Activity,Mus musculus [55],Toxic
same,Activity,Mus musculus [13],Active
